# “And” between values parts separate entries of the source, which are not always exact repeats. Equal entries are not always repeated.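 All cell lines were grown in 96-well plates and treated with compound for 48 hours. GI50 marks 50% less growth. TGI: total growth inhibition.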
# System: BT-549 breast
# Test: NCI tumour cell line growth inhibition, 48 h
row,SMILES,TGI
1,COc1cc2c(c(O)c1C)C(=O)C(Cl)=CC2=O,18.4 µM
2,CC1(C)N=C(N)N=C(N)N1c1ccc(CCCCc2ccc(S(=O)(=O)F)cc2Cl)c(Cl)c1,14.5 µM
3,O=C(O)CCCc1ccc(N(CCCl)CCCl)cc1,290 µM and 289 µM

# System: DLD-1 colon
# Test: NCI tumour cell line growth inhibition, 48 h
SMILES,TGI,GI50
COc1cc2c(c(O)c1C)C(=O)C(Cl)=CC2=O,48.5 µM,
CC1=CCCC(OC(N)=O)C1 (configuration not stated),> 100 µM,
CC1(C)N=C(N)N=C(N)N1c1ccc(CCCCc2ccc(S(=O)(=O)F)cc2Cl)c(Cl)c1,118 µM,
CC1=C[C@@H]2Cc3occc3C(C)(C)[C@@H]2CC1,32.8 µM,
CC(=O)/C=C/c1cccc(N=S)c1,16.5 µM,
O=C(Nc1ccccc1[N+](=O)[O-])c1ccccc1,> 100 µM,
CCC1CCC2CCCC(C)N12 (configuration not stated),> 100 µM,
O=C(O)CCCc1ccc(N(CCCl)CCCl)cc1,54.8 µM and 280 µM,24.3 µM
CC1CCC[P+](Cc2ccccc2)(c2ccccc2)CC1 (configuration not stated),> 100 µM,

# System: KM20L2 colon
# Test: NCI tumour cell line growth inhibition, 48 h
SMILES,TGI,GI50
COc1cc2c(c(O)c1C)C(=O)C(Cl)=CC2=O,49.1 µM,
CC1=CCCC(OC(N)=O)C1 (configuration not stated),> 100 µM,
CC1(C)N=C(N)N=C(N)N1c1ccc(CCCCc2ccc(S(=O)(=O)F)cc2Cl)c(Cl)c1,163 µM,
CC1=C[C@@H]2Cc3occc3C(C)(C)[C@@H]2CC1,33.8 µM,
CC(=O)/C=C/c1cccc(N=S)c1,37 µM,
O=C(Nc1ccccc1[N+](=O)[O-])c1ccccc1,> 100 µM,
CCC1CCC2CCCC(C)N12 (configuration not stated),> 100 µM,
O=C(O)CCCc1ccc(N(CCCl)CCCl)cc1,60.9 µM and 379 µM,27.8 µM
CC1CCC[P+](Cc2ccccc2)(c2ccccc2)CC1 (configuration not stated),> 100 µM,

# System: MDA-MB-435
# Test: NCI tumour cell line growth inhibition, 48 h
SMILES,TGI,GI50
COc1cc2c(c(O)c1C)C(=O)C(Cl)=CC2=O,16.4 µM,
CC1(C)N=C(N)N=C(N)N1c1ccc(CCCCc2ccc(S(=O)(=O)F)cc2Cl)c(Cl)c1,> 500 µM,
O=C(O)CCCc1ccc(N(CCCl)CCCl)cc1,270 µM and 242 µM,173 µM

# System: MDA-N
# Test: NCI tumour cell line growth inhibition, 48 h
SMILES,TGI,GI50
COc1cc2c(c(O)c1C)C(=O)C(Cl)=CC2=O,12.1 µM,
CC1(C)N=C(N)N=C(N)N1c1ccc(CCCCc2ccc(S(=O)(=O)F)cc2Cl)c(Cl)c1,39.5 µM,
O=C(O)CCCc1ccc(N(CCCl)CCCl)cc1,271 µM and 325 µM,194 µM

# System: P388 leukemia
# Test: NCI tumour cell line growth inhibition, 48 h
row,SMILES,TGI
1,CC1(C)N=C(N)N=C(N)N1c1ccc(CCCCc2ccc(S(=O)(=O)F)cc2Cl)c(Cl)c1,6.36 µM
2,O=C(O)CCCc1ccc(N(CCCl)CCCl)cc1,135 µM

# System: PC-3 prostate
# Test: NCI tumour cell line growth inhibition, 48 h
SMILES,TGI,GI50
COc1cc2c(c(O)c1C)C(=O)C(Cl)=CC2=O,28.7 µM,
CC1(C)N=C(N)N=C(N)N1c1ccc(CCCCc2ccc(S(=O)(=O)F)cc2Cl)c(Cl)c1,112 µM,
O=C(O)CCCc1ccc(N(CCCl)CCCl)cc1,416 µM and 609 µM,210 µM

# System: RXF-631 renal
# Test: NCI tumour cell line growth inhibition, 48 h
SMILES,TGI,GI50
COc1cc2c(c(O)c1C)C(=O)C(Cl)=CC2=O,17.6 µM,
CC1=CCCC(OC(N)=O)C1 (configuration not stated),> 100 µM,
CC1=C[C@@H]2Cc3occc3C(C)(C)[C@@H]2CC1,38.5 µM,
CC(=O)/C=C/c1cccc(N=S)c1,> 100 µM,
O=C(Nc1ccccc1[N+](=O)[O-])c1ccccc1,> 100 µM,
CCC1CCC2CCCC(C)N12 (configuration not stated),> 100 µM,
O=C(O)CCCc1ccc(N(CCCl)CCCl)cc1,47.7 µM and 277 µM,19.7 µM
CC1CCC[P+](Cc2ccccc2)(c2ccccc2)CC1 (configuration not stated),> 100 µM,

# System: SN12K1 renal
# Test: NCI tumour cell line growth inhibition, 48 h
row,SMILES,TGI
1,CC1(C)N=C(N)N=C(N)N1c1ccc(CCCCc2ccc(S(=O)(=O)F)cc2Cl)c(Cl)c1,6.92 µM
2,O=C(O)CCCc1ccc(N(CCCl)CCCl)cc1,238 µM

# System: T-47D breast
# Test: NCI tumour cell line growth inhibition, 48 h
SMILES,TGI,GI50
COc1cc2c(c(O)c1C)C(=O)C(Cl)=CC2=O,5.22 µM,
CC1(C)N=C(N)N=C(N)N1c1ccc(CCCCc2ccc(S(=O)(=O)F)cc2Cl)c(Cl)c1,34.8 µM,
O=C(O)CCCc1ccc(N(CCCl)CCCl)cc1,333 µM and 292 µM,27.3 µM

# System: XF 498 CNS
# Test: NCI tumour cell line growth inhibition, 48 h
SMILES,TGI,GI50
COc1cc2c(c(O)c1C)C(=O)C(Cl)=CC2=O,35.2 µM,
CC1=CCCC(OC(N)=O)C1 (configuration not stated),> 100 µM,
CC1(C)N=C(N)N=C(N)N1c1ccc(CCCCc2ccc(S(=O)(=O)F)cc2Cl)c(Cl)c1,3 µM,
CC1=C[C@@H]2Cc3occc3C(C)(C)[C@@H]2CC1,29.3 µM,
CC(=O)/C=C/c1cccc(N=S)c1,> 100 µM,
O=C(Nc1ccccc1[N+](=O)[O-])c1ccccc1,> 100 µM,
CCC1CCC2CCCC(C)N12 (configuration not stated),> 100 µM,
O=C(O)CCCc1ccc(N(CCCl)CCCl)cc1,31.9 µM and 158 µM,12.1 µM
CC1CCC[P+](Cc2ccccc2)(c2ccccc2)CC1 (configuration not stated),> 100 µM,

# Source: PubChem BioAssay (NCI)
